Source: the NIST ThermoML archive (doi:10.1016/j.jct.2008.03.017)
Numbers after ± are expanded uncertainties.

Details: Liquid; for mass density: 101.33 kPa

SMILES	mass density (298.15 K) [kg/m3]	vapor or sublimation pressure (298.15 K) [kPa]	mass density (328.15 K) [kg/m3]	vapor or sublimation pressure (328.15 K) [kPa]
C1COCO1 [1,3-dioxolane]	1058.62 ± 0.71	13.54 ± 0.14	1039.88 ± 0.64	49.01 ± 0.19
C1COCCO1 [1,4-dioxane]	1027.87 ± 0.6	4.9 ± 0.13	1010.69 ± 0.53	19.54 ± 0.15
CCCCCCCl [1-chlorohexane]	873.5	1.255 ± 0.13	859.01	5.965 ± 0.13
C1CCOC1 [tetrahydrofuran]	881.95 ± 0.45	21.61 ± 0.15	865.36 ± 0.49	70.61 ± 0.22
C1CCOCC1 [tetrahydropyran]	878.81 ± 0.81	9.56 ± 0.14	863.67 ± 0.85	33.95 ± 0.17
